According to the supplement of paper PMC10307832:

How the values were obtained:
Assay in all cases: relative viability (nuclei count vs DMSO), 5 days (fraction); higher = more cells survive
HARA = test system: HARA
How it was run: (§1)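 After 5 days of treatment, lung cancer cells in 1536-well plates were fixed and stained in a single step (final 0.05% Triton X-100, 1% formaldehyde, 1 ug/ml Hoechst) and their nuclei counted on 4× images. Treatment had been applied by pin tool the day after seeding as one drug alone or as a fixed anchor-drug dose with five library-drug doses (not always all listed) in √10 steps. Relative viability is the nuclei count of treated wells divided by that of vehicle wells, and values are medians of duplicate plates.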

NCI-H2126 = test system: NCI-H2126
How it was run: as §1

CAL-12T = test system: CAL-12T
How it was run: as §1

NCI-H1975 = test system: NCI-H1975
How it was run: as §1

NCI-H647 = test system: NCI-H647
How it was run: as §1

NCI-H460 = test system: NCI-H460
How it was run: as §1

NCI-H727 = test system: NCI-H727
How it was run: as §1

A-427 = test system: A-427
How it was run: as §1

NCI-H596 = test system: NCI-H596
How it was run: as §1

NCI-H1734 = test system: NCI-H1734
How it was run: as §1

NCI-H520 = test system: NCI-H520
How it was run: as §1

BEN = test system: BEN
How it was run: as §1

NCI-H1666 = test system: NCI-H1666
How it was run: as §1

NCI-H2085 = test system: NCI-H2085
How it was run: as §1

NCI-H838 = test system: NCI-H838
How it was run: as §1

RERF-LC-KJ = test system: RERF-LC-KJ
How it was run: as §1

LOU-NH91 = test system: LOU-NH91
How it was run: as §1

NCI-H1944 = test system: NCI-H1944
How it was run: as §1

NCI-H1651 = test system: NCI-H1651
How it was run: as §1

Cc1csc(=NC2CCCCC2)n1/N=C/c1ccc(O)c(O)c1O [MIM1] + CC1(C)CCC(c2ccc(Cl)cc2)=C(CN2CCN(c3ccc(C(=O)NS(=O)(=O)c4ccc(N[C@H](CCN5CCOCC5)CSc5ccccc5)c(S(=O)(=O)C(F)(F)F)c4)cc3)CC2)C1 [Navitoclax] (partner 0.5 µM)
relative viability (HARA; first compound 0.2 µM): 1.13 | relative viability (HARA; first compound 0.6325 µM): 1.15 | relative viability (HARA; first compound 2 µM): 1.19 | relative viability (HARA; first compound 6.325 µM): 1.13 | relative viability (HARA; first compound 20 µM): 0.23 | relative viability (NCI-H2126; first compound 0.2 µM): 0.898 | relative viability (NCI-H2126; first compound 0.6325 µM): 0.854 | relative viability (NCI-H2126; first compound 2 µM): 0.974 | relative viability (NCI-H2126; first compound 6.325 µM): 0.831 | relative viability (NCI-H2126; first compound 20 µM): 0.812 | relative viability (CAL-12T; first compound 0.2 µM): 1.13 | relative viability (CAL-12T; first compound 0.6325 µM): 1.36 | relative viability (CAL-12T; first compound 2 µM): 1.15 | relative viability (CAL-12T; first compound 6.325 µM): 0.731 | relative viability (CAL-12T; first compound 20 µM): 0.945 | relative viability (NCI-H1975; first compound 0.2 µM): 1.16 | relative viability (NCI-H1975; first compound 0.6325 µM): 1.23 | relative viability (NCI-H1975; first compound 2 µM): 1.04 | relative viability (NCI-H1975; first compound 6.325 µM): 0.732 | relative viability (NCI-H1975; first compound 20 µM): 0.761 | relative viability (NCI-H647; first compound 0.2 µM): 1.2 | relative viability (NCI-H647; first compound 0.6325 µM): 0.989 | relative viability (NCI-H647; first compound 2 µM): 0.742 | relative viability (NCI-H647; first compound 6.325 µM): 0.809 | relative viability (NCI-H647; first compound 20 µM): 0.617 | relative viability (NCI-H460; first compound 0.2 µM): 1.16 | relative viability (NCI-H460; first compound 0.6325 µM): 1.14 | relative viability (NCI-H460; first compound 2 µM): 0.772 | relative viability (NCI-H460; first compound 6.325 µM): 0.416 | relative viability (NCI-H460; first compound 20 µM): 0.0332 | relative viability (NCI-H727; first compound 0.2 µM): 0.441 | relative viability (NCI-H727; first compound 0.6325 µM): 0.493 | relative viability (NCI-H727; first compound 2 µM): 0.324 | relative viability (NCI-H727; first compound 6.325 µM): 0.346 | relative viability (NCI-H727; first compound 20 µM): 0.27 | relative viability (A-427; first compound 0.2 µM): 0.972 | relative viability (A-427; first compound 0.6325 µM): 1.02 | relative viability (A-427; first compound 2 µM): 0.981 | relative viability (A-427; first compound 6.325 µM): 0.986 | relative viability (A-427; first compound 20 µM): 0.555 | relative viability (NCI-H596; first compound 0.2 µM): 0.935 | relative viability (NCI-H596; first compound 0.6325 µM): 0.921 | relative viability (NCI-H596; first compound 2 µM): 0.895 | relative viability (NCI-H596; first compound 6.325 µM): 0.806 | relative viability (NCI-H596; first compound 20 µM): 0.7 | relative viability (NCI-H1734; first compound 0.2 µM): 0.807 | relative viability (NCI-H1734; first compound 0.6325 µM): 0.908 | relative viability (NCI-H1734; first compound 2 µM): 0.783 | relative viability (NCI-H1734; first compound 6.325 µM): 0.467 | relative viability (NCI-H1734; first compound 20 µM): 0.202 | relative viability (NCI-H520; first compound 0.2 µM): 1.08 | relative viability (NCI-H520; first compound 0.6325 µM): 1.06 | relative viability (NCI-H520; first compound 2 µM): 1.06 | relative viability (NCI-H520; first compound 6.325 µM): 0.832 | relative viability (NCI-H520; first compound 20 µM): 0.517 | relative viability (BEN; first compound 0.2 µM): 0.0709 | relative viability (BEN; first compound 0.6325 µM): 0.0746 | relative viability (BEN; first compound 2 µM): 0.0631 | relative viability (BEN; first compound 6.325 µM): 0.0911 | relative viability (BEN; first compound 20 µM): 0.0543 | relative viability (NCI-H1666; first compound 0.2 µM): 1 | relative viability (NCI-H1666; first compound 0.6325 µM): 1.15 | relative viability (NCI-H1666; first compound 2 µM): 1.11 | relative viability (NCI-H1666; first compound 6.325 µM): 0.727 | relative viability (NCI-H1666; first compound 20 µM): 0.667 | relative viability (NCI-H2085; first compound 0.2 µM): 1.17 | relative viability (NCI-H2085; first compound 0.6325 µM): 1.08 | relative viability (NCI-H2085; first compound 2 µM): 1.12 | relative viability (NCI-H2085; first compound 6.325 µM): 1.02 | relative viability (NCI-H2085; first compound 20 µM): 1.01 | relative viability (NCI-H838; first compound 0.2 µM): 1.12 | relative viability (NCI-H838; first compound 0.6325 µM): 1.3 | relative viability (NCI-H838; first compound 2 µM): 0.994 | relative viability (NCI-H838; first compound 6.325 µM): 0.902 | relative viability (NCI-H838; first compound 20 µM): 0.501 | relative viability (RERF-LC-KJ; first compound 0.2 µM): 0.848 | relative viability (RERF-LC-KJ; first compound 0.6325 µM): 0.725 | relative viability (RERF-LC-KJ; first compound 2 µM): 0.534 | relative viability (RERF-LC-KJ; first compound 6.325 µM): 0.568 | relative viability (RERF-LC-KJ; first compound 20 µM): 0.245 | relative viability (LOU-NH91; first compound 0.2 µM): 0.588 | relative viability (LOU-NH91; first compound 0.6325 µM): 0.69 | relative viability (LOU-NH91; first compound 2 µM): 0.532 | relative viability (LOU-NH91; first compound 6.325 µM): 0.492 | relative viability (LOU-NH91; first compound 20 µM): 0.313 | relative viability (NCI-H1944; first compound 0.2 µM): 0.985 | relative viability (NCI-H1944; first compound 0.6325 µM): 1.04 | relative viability (NCI-H1944; first compound 2 µM): 0.845 | relative viability (NCI-H1944; first compound 6.325 µM): 0.938 | relative viability (NCI-H1944; first compound 20 µM): 1.11 | relative viability (NCI-H1651; first compound 0.2 µM): 1.09 | relative viability (NCI-H1651; first compound 0.6325 µM): 1.1 | relative viability (NCI-H1651; first compound 2 µM): 1.03 | relative viability (NCI-H1651; first compound 6.325 µM): 0.875 | relative viability (NCI-H1651; first compound 20 µM): 0.869
